According to article PMC8523698, “Preclinical characterization of an intravenous coronavirus 3CL protease inhibitor for the potential treatment of COVID19” (Nature Communications, 2021):
Values after ≈ are worked out from the molar mass of the structure shown. Values joined by “and” are separate entries in the source; they are usually repeats but may differ in a detail not shown here. Equal values may be shown once. Read-outs that look alike come from different tables or passages of the source.

Legend:
OCT1 = target: T1, OCT1 (Homo sapiens, UniProt O15245); assay: Transporter inhibition using transfected HEK293 cells; assay type: in vitro ADME; details: IC50, [14C]Metformin (10 µM)
T1 construct: expressed in transfected cells; host or cells: HEK293
T1 sequence (O15245 1-554): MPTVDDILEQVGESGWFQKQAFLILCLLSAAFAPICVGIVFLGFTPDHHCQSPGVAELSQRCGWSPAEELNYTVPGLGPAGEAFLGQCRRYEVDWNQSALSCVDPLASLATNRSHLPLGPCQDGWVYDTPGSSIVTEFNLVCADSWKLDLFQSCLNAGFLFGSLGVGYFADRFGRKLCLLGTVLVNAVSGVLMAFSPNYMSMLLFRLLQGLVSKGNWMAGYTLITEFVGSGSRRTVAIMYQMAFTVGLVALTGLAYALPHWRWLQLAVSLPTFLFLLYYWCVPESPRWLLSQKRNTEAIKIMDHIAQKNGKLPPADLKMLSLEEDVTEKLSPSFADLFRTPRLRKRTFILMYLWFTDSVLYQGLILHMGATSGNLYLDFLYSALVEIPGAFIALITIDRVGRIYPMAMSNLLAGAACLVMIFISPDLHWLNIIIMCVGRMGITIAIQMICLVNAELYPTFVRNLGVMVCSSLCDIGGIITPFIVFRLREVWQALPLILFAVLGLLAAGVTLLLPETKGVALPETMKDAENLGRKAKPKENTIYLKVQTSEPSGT

[1] = In vitro micronucleus formation; assay type: cell-based
[2] = system: Salmonella typhimurium strains and E. coli strain WP2 uvrA; assay: Bacterial reverse mutation assay; details: with and without metabolic activation
[3] = Plasma protein binding by equilibrium dialysis; details: for fraction unbound at 6 h, 5 uM / fraction unbound at 6 h / fraction unbound at 6 h, 3.44 uM: plasma
[4] = Plasma protein binding by equilibrium dialysis; details: for fraction unbound at 6 h, 5 uM / fraction unbound at 6 h / fraction unbound at 6 h, 3.44 uM: rat, plasma
OAT3 = target: T2, OAT3 (Homo sapiens, UniProt Q8TCC7); assay: Transporter inhibition using transfected HEK293 cells
T2 sequence (Q8TCC7 1-542): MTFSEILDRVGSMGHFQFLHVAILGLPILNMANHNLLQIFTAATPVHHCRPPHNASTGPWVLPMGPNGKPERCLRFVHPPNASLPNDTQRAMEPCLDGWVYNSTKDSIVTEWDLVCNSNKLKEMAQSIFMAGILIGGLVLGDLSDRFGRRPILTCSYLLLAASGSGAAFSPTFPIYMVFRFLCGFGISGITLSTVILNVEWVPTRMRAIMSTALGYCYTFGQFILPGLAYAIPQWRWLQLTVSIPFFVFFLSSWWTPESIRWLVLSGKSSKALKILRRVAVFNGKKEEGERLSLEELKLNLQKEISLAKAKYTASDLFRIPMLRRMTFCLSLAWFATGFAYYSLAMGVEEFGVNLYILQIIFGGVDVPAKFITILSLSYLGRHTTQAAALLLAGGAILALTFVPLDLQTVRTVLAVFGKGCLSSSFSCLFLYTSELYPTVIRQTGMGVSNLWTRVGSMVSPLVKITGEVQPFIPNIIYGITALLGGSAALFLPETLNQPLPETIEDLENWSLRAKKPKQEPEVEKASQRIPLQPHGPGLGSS

OCT2 = target: T3, OCT2 (Homo sapiens, UniProt O15244); assay: as above
T3 sequence (O15244 1-555): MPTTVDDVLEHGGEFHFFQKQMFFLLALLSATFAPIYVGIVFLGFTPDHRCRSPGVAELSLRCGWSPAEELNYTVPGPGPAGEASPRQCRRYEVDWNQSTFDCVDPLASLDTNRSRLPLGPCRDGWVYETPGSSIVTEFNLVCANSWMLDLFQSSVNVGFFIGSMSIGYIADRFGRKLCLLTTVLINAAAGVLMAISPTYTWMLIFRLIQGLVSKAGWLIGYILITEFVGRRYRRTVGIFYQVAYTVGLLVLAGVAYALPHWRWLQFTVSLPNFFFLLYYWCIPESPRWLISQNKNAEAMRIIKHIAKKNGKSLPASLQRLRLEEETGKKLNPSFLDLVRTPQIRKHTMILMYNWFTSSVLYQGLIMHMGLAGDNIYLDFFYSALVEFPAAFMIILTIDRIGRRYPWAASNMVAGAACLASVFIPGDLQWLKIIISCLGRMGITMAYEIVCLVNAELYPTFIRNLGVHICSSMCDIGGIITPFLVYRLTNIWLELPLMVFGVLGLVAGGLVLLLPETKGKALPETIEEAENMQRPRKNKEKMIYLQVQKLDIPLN

[5] = Human blood hemocompatibility (hemolysis, flocculation)
MRC-5 cells = assay: Cytotoxicity in MRC-5 cells; details: MRC-5, plus 0.5 uM efflux inhibitor; one value per run date (N=3)

COc1cccc2[nH]c(C(=O)N[C@@H](CC(C)C)C(=O)N[C@@H](C[C@@H]3CCNC3=O)C(=O)CO)cc12 [PF-00835231]
IC50 (OCT1): 36.3 µM | IC50 (OCT1; human, HEK293 cells stably transfected with OCT1, pH 7.4, probe [14C]-metformin (10 µM)): > 20 µM | micronuclei formation [1]: did not induce micronuclei formation | CC50 (in vitro; African green monkey, CC50): > 100 µM | CC50 (in vitro; African green monkey, CC50, n=1): > 50 µM | CC50 (in vitro; monkey, CC50): > 50 µM | CC50 (in vitro; monkey, CC50, n=1): > 50 µM | CC50 (in vitro; monkey, CC50 GeoMean (95% CI)): > 100 µM | solubility at 48 h (Solubility measurement; deionized water and pH buffers): < 0.1 mg/mL | solubility (Solubility measurement; standard solubilizing excipients, aqueous with cosolvent or surfactant or cyclodextrin): 0.5 mg/mL (≈ 1.06 mM) | bacterial reverse mutation assay result [2]: negative | Individual fraction unbound ([3]; Monkey Cynomologous plasma, 5.0 uM, replicates Day 1-3): 0.429 and 0.445 and 0.467 and 0.489 and 0.396 and 0.428 and 0.46 and 0.501 and 0.390 | fraction unbound at 6 h, 5 uM ([3]; cynomolgus monkey, pH 7.4, Individual fraction unbound, Monkey Cynomologous plasma, 5.0 uM, replicates Day 1-3): 0.44 | fraction unbound at 6 h, 5 uM ([3]; monkey, pH 7.4, Fraction unbound, Geomean, Monkey plasma, 5.0 uM, n 12): 0.441 | fraction unbound at 6 h ([3]; monkey, pH 7.4, Plasma fu, Vdss input): 0.441 | fraction unbound at 6 h ([3]; monkey, pH 7.4, Unbound fraction fu (%CV), monkey plasma): 0.441 | fraction unbound at 6 h, 5 uM ([3]; monkey, pH 7.4, fraction unbound Geomean, monkey plasma, 5.0 uM, n=12): 0.441 | Individual fraction unbound ([4]; Rat Wistar han plasma, 5.0 uM, replicates Day 1-3): 0.368 and 0.323 and 0.339 and 0.35 and 0.268 and 0.363 and 0.364 and 0.263 and 0.326 and 0.358 and 0.285 | fraction unbound at 6 h, 5 uM ([4]; Wistar Han, pH 7.4, Fraction unbound, Geomean, Rat plasma, 5.0 uM, n 12): 0.327 | fraction unbound at 6 h, 5 uM ([4]; Wistar Han, pH 7.4, Individual fraction unbound, Rat Wistar han plasma, 5.0 uM, replicates Day 1-3): 0.343 | fraction unbound at 6 h ([4]; Wistar Hannover, pH 7.4, Plasma fu, Vdss input): 0.327 | fraction unbound at 6 h ([4]; Wistar Hannover, pH 7.4, Unbound fraction fu (%CV), rat plasma (PF-07304814 Sprague-Dawley, PF-00835231 Wistar Hannover)): 0.327 | fraction unbound at 6 h, 5 uM ([4]; Wistar Hannover, pH 7.4, fraction unbound Geomean, rat plasma, 5.0 uM, n=12): 0.327 | IC50 (OAT3): > 300 µM | IC50 (OAT3; human, HEK293 cells transfected with OAT3, pH 7.4, probe [3H] estrone-3-sulfate (0.1 µM)): > 20 µM | IC50 (OCT2): > 300 µM | IC50 (OCT2; human, HEK293 cells stably transfected with OCT2, pH 7.4, probe [14C]-metformin (20 µM)): > 20 µM | hemolysis or flocculation/turbidity parameters [5]: no effect on hemolysis or flocculation/turbidity parameters

COc1cccc2[nH]c(C(=O)N[C@@H](CC(C)C)C(=O)N[C@@H](C[C@@H]3CCNC3=O)C(=O)COP(=O)(O)O)cc12 [PF-07304814]
IC50 (OCT1): > 300 µM | micronuclei formation [1]: did not induce micronuclei formation | CC50 (in vitro; African green monkey, CC50): > 100 µM | solubility at 48 h (Solubility measurement; deionized water and pH buffers): > 200 mg/mL | solubility at 48 h (Solubility measurement; deionized water and pH buffers (aqueous)): 200 mg/mL (≈ 362 mM) | CC50 (MRC-5 cells): > 100 µM | bacterial reverse mutation assay result [2]: negative | fraction unbound at 6 h, 3.44 uM ([3]; both, Cynomologous, cynomolgus monkey, pH 7.4, Individual fraction unbound, monkey plasma, Cynomologous, male and female, 3.44 uM, Day 1): 0.388 | fraction unbound at 6 h, 3.44 uM ([3]; both, Cynomologous, cynomolgus monkey, pH 7.4, Individual fraction unbound, monkey plasma, Cynomologous, male and female, 3.44 uM, Day 2): 0.356 | fraction unbound at 6 h, 3.44 uM ([3]; both, Cynomologous, cynomolgus monkey, pH 7.4, Individual fraction unbound, monkey plasma, Cynomologous, male and female, 3.44 uM, Day 3): 0.442 | Individual fraction unbound ([3]; monkey plasma, Cynomologous, male and female, 3.44 uM, Day 1): 0.366 and 0.39 and 0.393 | Individual fraction unbound ([3]; monkey plasma, Cynomologous, male and female, 3.44 uM, Day 2): 0.318 and 0.315 and 0.319 | Individual fraction unbound ([3]; monkey plasma, Cynomologous, male and female, 3.44 uM, Day 3): 0.37 and 0.354 and 0.347 | fraction unbound at 6 h, 3.44 uM ([3]; monkey, pH 7.4, fraction unbound Geomean, monkey plasma, 3.44 uM, n=12): 0.361 | fraction unbound at 6 h, 3.44 uM ([4]; Sprague-Dawley, pH 7.4, fraction unbound Geomean, rat plasma, 3.44 uM, n=12): 0.379 | fraction unbound at 6 h, 3.44 uM ([4]; both, Sprague Dawley, pH 7.4, Individual fraction unbound, rat plasma, Sprague Dawley, male and female, 3.44 uM, Day 1): 0.404 | fraction unbound at 6 h, 3.44 uM ([4]; both, Sprague Dawley, pH 7.4, Individual fraction unbound, rat plasma, Sprague Dawley, male and female, 3.44 uM, Day 2): 0.362 | fraction unbound at 6 h, 3.44 uM ([4]; both, Sprague Dawley, pH 7.4, Individual fraction unbound, rat plasma, Sprague Dawley, male and female, 3.44 uM, Day 3): 0.404 | Individual fraction unbound ([4]; rat plasma, Sprague Dawley, male and female, 3.44 uM, Day 1): 0.384 and 0.405 and 0.491 | Individual fraction unbound ([4]; rat plasma, Sprague Dawley, male and female, 3.44 uM, Day 2): 0.301 and 0.338 and 0.325 | Individual fraction unbound ([4]; rat plasma, Sprague Dawley, male and female, 3.44 uM, Day 3): 0.406 and 0.385 and 0.381 | IC50 (OAT3; IC50, [3H]ES (0.1 µM)): > 300 µM | IC50 (OCT2; IC50, [14C]Metformin (20 µM)): > 300 µM | hemolysis or flocculation/turbidity parameters [5]: no effect on hemolysis or flocculation/turbidity parameters
